The values below come from US8242136B2, “Use of glucosidase inhibitors for therapy of mucovisidosis” (Centre National de la Recherche Scientifique (C.N.R.S.), priority 2003, dated 2012).

“Also recorded” adds a separate entry of the source. Where only a bound is given, the exact number is not on record here.

Data set [1] concerns delF508-CFTR. The experiment in a line: Iodide efflux on CF15 cells: addressing of delF508 after pre-treatment, stimulation with forskolin + genistein. The class given is cell-based, human. The following applies: CF15 cells treated with 100μM for two hours at 37° C.; Forskolin 10μM + Genistein 30μM; FIG. 7.
Data set [2] relates to delF508-CFTR. The data set is described as above. The class given is cell-based, human. On the procedure:
CF15 cells: CF15 cells are human epithelial cells of nasal origin which express the ΔF508-CFTR gene.
The measurements of chloride ion transport in the cells were carried out using the radioactive iodide efflux technique (Becq et al., 1999; Dormer et al., 2001). The tracer (^125I) is incorporated into the intracellular medium. Then, the quantity of radiotracer leaving the cell is counted after the addition of different pharmacological agents. The iodide is used as a tracer of the chloride ion transport. It has been shown that the two radiotracers ^125I and ^36Cl could be considered as equivalents for measuring the activity of a chloride channel (Venglarick et al., 1990). ^125I moreover has the advantage of having a short life compared with that of […] (respective half-lives: 30 days and 300,000 years). The cells are cultured on 24-well plates in an appropriate medium. 2 rinsings with efflux medium (NaCl: 136.6 mM, KCl: 5.4 mM, KH2PO4: 0.3 mM, NaH2PO4: 0.3 mM, NaHCO3: 4.2 mM, CaCl2: 1.3 mM, MgCl2: 0.5 mM, MgSO4: 0.4 mM, HEPES: 10 mM, D-glucose: 5.6 mM) are carried out in order to eliminate the dead cells which release the radioactivity in an anarchic manner. Then, the cells are incubated with 500 μl of charge (1 μCi/ml of ^125INa) for 30 minutes for CHO-WT or 1 hour for CF15 and Calu-3. The iodide is in equilibrium on both sides of the cell membrane. The robot (MultiPROBE, Packard) carries out the following stages: The charge medium is rinsed with efflux medium in order to eliminate the extracellular radioactivity. The supernatant is collected every minute in haemolysis tubes and the medium is replaced by an equivalent volume (500 μl). The samples taken in the first 3 minutes are not subjected to the addition of a drug, they make it possible to obtain a stable base line, characterizing the passive exit of the I^− ions. The following 7 samples are obtained in the presence of the molecule to be tested. At the end of the experiment, the cells are lysed by the addition of 500 μl of NaOH (0.1 N)/0.1% SDS (30 minutes), thus, the radioactivity remaining inside the cell can be determined. The radioactivity present in the haemolysis tubes is counted in counts per minute (cpm) using a gamma counter (Cobra II, Packard). The results in cpm are expressed in the form of exit speed of radioactive iodide (R) according to the following formula: R (min^−1)=[ln(^125I t1)−ln(^125I t2)]/(t1−t2) with ^125I t1: cpm at time t1; ^125I t2: cpm at time t2. This iodide flow is represented in the form of a curve. In order to quantify the exit of iodide due to the administration of the molecule tested, the following relative flow is calculated which makes it possible to be rid of the base flow: Relative speed (min^−1)=Rpeak−Rbasal. […] The results are presented in the form of an average+/−SEM. Student's statistical test is used in order to compare the effects of the drugs with the controls (the values corresponding to P<0.01 are considered statistically significant).
For each experiment, the addition of a cocktail (Forskolin 10 μM, Genistein 30 μM) allows the activation of the CFTR when the latter is on the membrane. […]
The CF15 cells were pre-treated for 2 hours with NB-DNJ (500μM). […] The CFTR activity is measured in iodide efflux (n=8 for each condition) after stimulation by fsk 10μM+Gst 30μM.
The CF15 cells were pre-treated for 2 hours with NB-DNJ at different concentrations. The CFTR activity is measured in iodide efflux (n=4 for each concentration) after stimulation with fsk 10μM+Gst 30μM.

Another data set deals with delF508. The following applies: pulmonary epithelial cells; cited from earlier work.
The test system of a further data set is tissues in culture. The following applies: high concentration (2 mM); cited from earlier work.
The next data set relates to CHO-WT cells. Kind of data set: MTT cytotoxicity test on CHO-WT cells. It is filed as cell-based, Chinese Hamster. The following applies: 2 hours; for cytotoxicity (MTT): CHO cells. As for the experimental part:
CHO-WT cells: CHO (Chinese Hamster Ovary) cells are fibroblasts which have been transfected with the wild-type CFTR gene (CFTR-WT). These cells will therefore overexpress the CFTR protein.
The MTT toxicity test is a colorimetric test which is based on the ability of the mitochondrial dehydrogenases to metabolize MTT (yellow tetrazolium salt) to formazan (purple). The absorbance, proportional to the concentration of converted dye, can then be measured by spectrophotometry. The cells are incubated on 96-well plates in the presence of the agent to be tested for 2 hours. 3 controls are carried out: 100% live cells: cells without agent; 0% live cells: cells left in the open air; blank: medium without cells. […] Then they are incubated for 4 hours with 100 μl of RPMI solution supplemented with MTT (0.5 mg/ml). The medium is then eliminated, the addition of 100 μl of DMSO makes it possible to solubilize the converted dye (formazan). The absorbance is measured by spectrophotometry at: 570 nm (purple); 630 nm (background noise). In order to be rid of the background noise, the following calculation is carried out: ODreal=OD570 nm−OD630 nm.
For the purpose of testing the cytotoxicity of NB-DNJ, CHO-WT cells were incubated for 2 hours with different concentrations of inhibitors before being subjected to the cell viability test with MTT.
2 hours of treatment of the cells.
For orientation: Tetrazolium assays rely on reduction of a dye to a coloured formazan, in cell work by metabolically active cells.

The conditions of data set [3]: patients suffering from acquired immunodeficiency syndrome; cited from earlier work.
Data set [4] has as its system delF508-CFTR. Kind of data set: Immunolabelling / cell imaging of delF508 location in CF15 cells. The following applies: CF15 cells after treatment. The class given is cell-based, human. On the procedure: Immunolabelling makes it possible to visualize the cell location of the CFTR protein by means of an anti-CFTR primary antibody (Ab) then a primary anti-antibody secondary antibody labelled with Cy3 fluorophore. The cells are previously seeded on lamellae in appropriate culture medium. 3 washings with TBS (NaCl: 157 mM, Tris base: […], pH 7.4) of 5 minutes each are carried out. The cells are then fixed by the addition of TBS-paraformadehyde (3%) over 20 minutes. After 3 washings with TBS (5 minutes), the cells are incubated with 0.1% TBS-triton (10 minutes) which allows the formation of holes in the cell membrane, then 3 washings with TBS are once again carried out before bringing the cells together with 0.5% TBS-BSA-0.05% saponin for 1 hour. The cells are then incubated with the CFTR anti-C terminal primary antibody (2μg/ml) for 1 hour. 3 washings with TBS-BSA-saponin of 5 minutes each are carried out before incubation with the GAM-cy3 secondary antibody ( 1/400) for 1 hour. Following two 5-minute washings with TBS, the nuclei are labelled by incubation with Topro3 ( 1/1000) for 5 minutes. Finally, the lamellae can be mounted on slides after three last 5-minute washings with TBS. […] In order to differentiate between Cy3 and Topro3 labelling the colour of fluorescence of Topro3 has been changed to blue (colour of the nuclei). […]

The target in data set [5] is T1, wild-type CFTR (Homo sapiens, UniProt P13569).
T1 construct: Calu-3 cells are human epithelial cells of pulmonary origin which express the wild-type CFTR gene; endogenous in cells; host or cells: Calu-3 human pulmonary epithelial cells
The experiment in a line: Iodide efflux on Calu-3 cells: compound tested as activator. The class given is cell-based. The settings on record: fsk 5μM, MPB-91 250μM, NB-DNJ 500μM, n=8. On the procedure:
(§1) Calu-3 cells: Calu-3 cells are human epithelial cells of pulmonary origin which express the wild-type CFTR gene.
(§2) The measurements of chloride ion transport in the cells were carried out using the radioactive iodide efflux technique (Becq et al., 1999; Dormer et al., 2001). The tracer (^125I) is incorporated into the intracellular medium. Then, the quantity of radiotracer leaving the cell is counted after the addition of different pharmacological agents. The iodide is used as a tracer of the chloride ion transport. […] 2 rinsings with efflux medium (NaCl: 136.6 mM, KCl: 5.4 mM, KH2PO4: 0.3 mM, NaH2PO4: 0.3 mM, NaHCO3: 4.2 mM, CaCl2: 1.3 mM, MgCl2: 0.5 mM, MgSO4: 0.4 mM, HEPES: 10 mM, D-glucose: 5.6 mM) are carried out in order to eliminate the dead cells which release the radioactivity in an anarchic manner. […] The robot (MultiPROBE, Packard) carries out the following stages: The charge medium is rinsed with efflux medium in order to eliminate the extracellular radioactivity. […] At the end of the experiment, the cells are lysed by the addition of 500 μl of NaOH (0.1 N)/0.1% SDS (30 minutes), thus, the radioactivity remaining inside the cell can be determined. The radioactivity present in the haemolysis tubes is counted in counts per minute (cpm) using a gamma counter (Cobra II, Packard). […]

The test system of data set [6] is wild-type CFTR. The experiment in a line: Iodide efflux on Calu-3 cells pre-treated for 2 hours: addressing of wild-type CFTR. The class given is cell-based, human. The following applies: Calu-3 cells pre-incubated 2 hours at 37° C. (NB-DNJ 500μM or MPB-91 250μM), stimulated with 250μM MPB-91. On the procedure:
as §1, §2

Setting [7] is: CF15 cells, stimulation Forskolin 10μM + Genistein 30μM.

T1 sequence (P13569 whole entry): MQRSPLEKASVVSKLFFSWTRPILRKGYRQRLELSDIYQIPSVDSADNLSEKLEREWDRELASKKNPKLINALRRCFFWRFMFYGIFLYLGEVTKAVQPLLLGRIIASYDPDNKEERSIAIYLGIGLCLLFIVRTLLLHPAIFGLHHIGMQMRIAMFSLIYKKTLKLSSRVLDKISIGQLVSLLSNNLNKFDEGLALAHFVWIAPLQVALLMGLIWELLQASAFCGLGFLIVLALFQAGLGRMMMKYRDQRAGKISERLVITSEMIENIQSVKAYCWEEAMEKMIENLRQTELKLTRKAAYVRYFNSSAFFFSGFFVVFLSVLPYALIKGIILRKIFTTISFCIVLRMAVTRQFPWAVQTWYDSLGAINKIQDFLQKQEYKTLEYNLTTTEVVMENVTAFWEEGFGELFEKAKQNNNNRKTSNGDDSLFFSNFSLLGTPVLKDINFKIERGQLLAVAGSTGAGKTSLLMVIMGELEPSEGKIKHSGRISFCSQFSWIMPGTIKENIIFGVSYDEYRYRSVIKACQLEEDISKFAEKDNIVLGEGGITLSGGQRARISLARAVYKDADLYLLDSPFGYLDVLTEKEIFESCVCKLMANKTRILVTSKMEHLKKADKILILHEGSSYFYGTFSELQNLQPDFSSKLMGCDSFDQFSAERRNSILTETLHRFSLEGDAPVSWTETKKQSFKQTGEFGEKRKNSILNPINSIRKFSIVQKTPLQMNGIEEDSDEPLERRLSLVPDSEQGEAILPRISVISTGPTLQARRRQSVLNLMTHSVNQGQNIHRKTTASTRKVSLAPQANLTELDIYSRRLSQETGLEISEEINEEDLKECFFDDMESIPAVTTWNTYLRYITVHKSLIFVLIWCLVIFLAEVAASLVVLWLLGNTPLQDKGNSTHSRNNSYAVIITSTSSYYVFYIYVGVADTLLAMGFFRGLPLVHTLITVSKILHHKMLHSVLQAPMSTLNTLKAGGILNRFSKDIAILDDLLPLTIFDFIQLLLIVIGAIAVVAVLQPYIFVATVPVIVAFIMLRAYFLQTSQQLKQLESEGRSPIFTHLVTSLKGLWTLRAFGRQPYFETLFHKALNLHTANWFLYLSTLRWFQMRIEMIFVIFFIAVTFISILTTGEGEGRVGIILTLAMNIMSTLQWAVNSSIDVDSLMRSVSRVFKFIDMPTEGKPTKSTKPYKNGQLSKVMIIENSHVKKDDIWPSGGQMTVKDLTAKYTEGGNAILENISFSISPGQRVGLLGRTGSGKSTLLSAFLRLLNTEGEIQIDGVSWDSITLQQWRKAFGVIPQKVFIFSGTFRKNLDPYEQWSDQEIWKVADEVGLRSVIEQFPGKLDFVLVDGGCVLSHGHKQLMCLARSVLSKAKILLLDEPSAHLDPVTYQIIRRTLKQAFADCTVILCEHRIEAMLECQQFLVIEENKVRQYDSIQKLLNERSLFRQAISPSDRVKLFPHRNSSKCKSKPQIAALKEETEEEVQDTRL

Consider `OCC1NCC(O)C(O)C1O` (stereo not drawn) [DMJ], for which the “addressing of delF508 and function as ion transporter (iodide efflux)” value (“addressing of delF508 and function” for short) in the data set on delF508-CFTR [1] was “restores an addressing of the delF508 protein and allows the latter to function as an ion transporter”. For the same compound, in the data set on delF508-CFTR [2] (setting [7]), the concentration for a half-maximal effect (EC50) is 134 µM.
Turning to `O[C@H]1[C@H](O)[C@@H](O)CN2CC[C@H](O)[C@H]12` [castanospermine], the “presence of delF508 at the surface of cells” value in the data set on delF508 is given as “had an effect on the renewal of the presence of delF508 at the surface of pulmonary epithelial cells”.
Regarding `CCCCN1C[C@H](O)[C@@H](O)[C@@H](O)[C@H]1CO` [nB-DGJ], the “addressing of delF508 and function” value with delF508-CFTR [1] is “no significant effect”.
Same read-out and setting: the entry for `C[C@@H]1NC[C@@H](O)[C@H](O)[C@@H]1O` [DFJ] is “no significant effect”.
As for `OC[C@H]1NC[C@H](O)[C@@H](O)[C@H]1O` [DGJ], in the data set on delF508-CFTR [1], the “addressing of delF508 and function” value is “no significant effect”.
For the compound `CCCCN1C[C@H](O)[C@@H](O)[C@H](O)[C@H]1CO` [NB-DNJ, N-butyl-deoxynojirimycin], the “cytotoxicity on tissues in culture” value in the data set on tissues in culture is reported as “is not cytotoxic”. Moreover, the “cytotoxicity (MTT)” value in the data set with CHO-WT cells (5μM) is “no cytotoxicity is measurable”; with CHO-WT cells (50μM) it was “no cytotoxicity is measurable”; in the data set on CHO-WT cells (500μM), “A low toxicity appears”. Further, the “cell viability / cytotoxicity (MTT)” value with CHO-WT cells (CHO-WT cells, all concentrations) is reported as “exhibits no cell cytotoxicity”. Also, the “addressing of delF508 and function” value in the data set on delF508-CFTR [2] (CF15 cells pre-treated 2 hours at 37° C. with 500μM, stimulation fsk 10μM + Gst 30μM, MPB-91 250μM = 100%) was “restores addressing of the delF508 protein and allows the latter to function as an ion transporter”. In addition, the EC50 with delF508-CFTR [2] (CF15 cells pre-treated 2 hours, stimulation fsk 10μM + Gst 30μM, FIG. 2) turned out to be 123 µM. For the same compound, the tolerability in patients result in data set [3] is recorded as “well tolerated”. Also, the “location of delF508 protein by cell imaging” value in the data set with delF508-CFTR [4] was “located the delF508 protein in the plasmatic membrane compartments”. For the same compound, the “activation of iodide efflux (CFTR activity / anionic transports)” value at wild-type CFTR [5] is “is not an activator of the wild-type CFTR nor of other anionic transports of these cells; also recorded: has no effect”. Moreover, in the data set on wild-type CFTR [6], the “CFTR activity (iodide efflux) after 2 hours pre-treatment” value was “the level of CFTR activity is not affected”.
`CCCCc1c(O)c2cccc(Cl)c2[n+]2ccccc12` [MPB-91]: the “activation of iodide efflux (CFTR activity / anionic transports)” value on wild-type CFTR [5] is listed as “activate an iodide efflux”. Besides, in the data set with wild-type CFTR [6], the “CFTR activity (iodide efflux) after 2 hours pre-treatment” value is listed as “not significantly different”.
On to `CCCCN1C[C@@H](O)[C@H](O)[C@H](O)[C@@H]1C` [nB-DFJ], for which the “addressing of delF508 and function” value in the data set with delF508-CFTR [1] is given as “no significant effect”.
On to `CCCCN1C[C@@H](O)[C@@H](O)[C@H](O)[C@H]1CO` [nB-DMJ], for which the “addressing of delF508 and function” value in the data set on delF508-CFTR [1] is “restores an addressing of the delF508 protein and allows the latter to function as an ion transporter”. Besides, the EC50 in the data set with delF508-CFTR [2] (setting [7]) was found to be 113 µM.
Regarding `OC[C@H]1NC[C@H](O)[C@@H](O)[C@@H]1O` [DNJ], the “addressing of delF508 and function” value in the data set with delF508-CFTR [1] was “restores an addressing of the delF508 protein and allows the latter to function as an ion transporter”. Besides, the EC50 with delF508-CFTR [2] (setting [7]) is over 250 µM.

By EC50 is commonly meant the concentration giving half of the maximal effect.
